Here are results for 25 molecules from patent US12428380B2 (PSYLO PTY LTD, priority 2023, dated 2025).

In general, Emax refers to the size of the effect at its maximum, as opposed to the concentration needed. As a reminder, the pEC50 is the EC50 on a negative log10 scale, so that one unit is a factor of ten. Higher therefore signals a small EC50.

pEC50: −log10 of the molar value.

In one test the target is T1, 5-HT2A (Homo sapiens, UniProt P28223).
T1 construct: host or cells: HEK293
Briefly: FLIPR Ca2+ flux functional assay, 5-HT2A (HEK293). It is filed as cell-based. Particulars: HEK293 cells expressing 5-HT2A; for Emax: HEK293, agonist activity; for pEC50: agonist activity. (In general: Calcium assays in cells follow changes in intracellular calcium, usually with a dye or a luminescent sensor.)

Test [1] addresses T2, 5-HT2B (Homo sapiens, UniProt P41595).
T2 construct: host or cells: CHO-K1
Briefly: Activation in a similar Ca2+ flux assay at a single concentration, 5-HT2B. The format is cell-based. Particulars: head prints 10 µM. As to the method:
Activity at 5-HT2A, 5-HT2B and 5-HT2C receptors was determined using a FLIPR Ca2+ flux assay at WuXi AppTec Co. Ltd. (Hong Kong) Discovery Biology Unit according to their standard protocols. Briefly, stably transfected cells expressing the receptor of interest (HEK293 for 5-HT2A and 5-HT2C; CHO-K1 for 5-HT2B) were grown and plated in a 384 well plate and incubated at 37° C. and 5% CO2 overnight. A 250 mM stock solution of probenecid in FLIPR calcium assay buffer (10 mL) was freshly prepared and combined with a fluorescent dye (Fluo-4 Direct) to give a final assay concentration of 2.5 mM. Reference compounds were 4-fold serially diluted and the screening compounds were 3-fold serially diluted in 100% DMSO for 10 points using Agilent Bravo, and 750 nL was added to a 384 well compound plate using Echo along with 30 μL assay buffer. The fluorescent dye was then added to the assay plate along with assay buffer to a final volume of 40 μL. The cell plate was incubated for 50 min at 37° C. and 5% CO2 and placed into the FLIPR Tetra along with the compound plate. 10 μL of references and compounds were then transferred from the compound plate into the cell plate and the fluorescent signal was read.
Activation data are provided in a similar assay tested at a single 10 μM concentration.

A further test concerns the target T3, 5-HT2C (Homo sapiens, UniProt P28335).
T3 construct: host or cells: HEK293
T3 sequence (P28335 33-458): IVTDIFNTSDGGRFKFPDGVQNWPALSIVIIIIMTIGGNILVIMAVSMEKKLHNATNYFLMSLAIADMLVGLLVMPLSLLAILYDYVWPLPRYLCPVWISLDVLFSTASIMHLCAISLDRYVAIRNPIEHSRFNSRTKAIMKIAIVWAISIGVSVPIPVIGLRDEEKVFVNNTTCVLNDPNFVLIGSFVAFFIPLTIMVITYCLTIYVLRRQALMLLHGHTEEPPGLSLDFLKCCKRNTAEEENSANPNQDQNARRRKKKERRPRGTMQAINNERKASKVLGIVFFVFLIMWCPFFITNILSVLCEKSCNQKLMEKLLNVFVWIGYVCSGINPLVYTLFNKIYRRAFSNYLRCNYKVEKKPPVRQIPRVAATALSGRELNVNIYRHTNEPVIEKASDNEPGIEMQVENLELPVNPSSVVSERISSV
Description: FLIPR Ca2+ flux functional assay, 5-HT2C (HEK293). Particulars: HEK293 cells expressing 5-HT2C; for Emax: HEK293, agonist activity. It is filed as cell-based.

For another test, the system named is ICR mice. Briefly: Acute restraint stress - tail suspension test (Example 51a). It is filed as in vivo, mouse. Particulars: male ICR mice after 5 h acute restraint stress, IP, tested 10 min after treatment, FIGS. 6 and 7.
Test [2] deals with T2, 5-HT2B. Description: FLIPR Ca2+ flux functional assay, 5-HT2B (CHO-K1). The format is cell-based. Particulars: CHO-K1 cells expressing 5-HT2B; for Emax: CHO-K1, agonist activity.

T2 sequence (P41595 whole entry, species assumed): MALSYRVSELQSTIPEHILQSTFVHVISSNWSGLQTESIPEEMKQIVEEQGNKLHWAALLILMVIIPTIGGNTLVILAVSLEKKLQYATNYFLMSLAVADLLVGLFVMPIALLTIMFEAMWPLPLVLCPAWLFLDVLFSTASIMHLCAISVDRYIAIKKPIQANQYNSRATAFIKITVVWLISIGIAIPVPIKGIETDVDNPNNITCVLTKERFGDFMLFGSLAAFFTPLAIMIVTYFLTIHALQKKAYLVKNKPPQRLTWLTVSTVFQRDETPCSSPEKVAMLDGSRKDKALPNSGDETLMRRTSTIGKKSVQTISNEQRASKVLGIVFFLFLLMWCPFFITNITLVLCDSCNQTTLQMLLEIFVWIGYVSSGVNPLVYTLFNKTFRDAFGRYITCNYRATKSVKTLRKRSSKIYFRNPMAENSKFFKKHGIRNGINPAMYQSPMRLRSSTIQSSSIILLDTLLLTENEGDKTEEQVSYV
T1 sequence (P28223 whole entry): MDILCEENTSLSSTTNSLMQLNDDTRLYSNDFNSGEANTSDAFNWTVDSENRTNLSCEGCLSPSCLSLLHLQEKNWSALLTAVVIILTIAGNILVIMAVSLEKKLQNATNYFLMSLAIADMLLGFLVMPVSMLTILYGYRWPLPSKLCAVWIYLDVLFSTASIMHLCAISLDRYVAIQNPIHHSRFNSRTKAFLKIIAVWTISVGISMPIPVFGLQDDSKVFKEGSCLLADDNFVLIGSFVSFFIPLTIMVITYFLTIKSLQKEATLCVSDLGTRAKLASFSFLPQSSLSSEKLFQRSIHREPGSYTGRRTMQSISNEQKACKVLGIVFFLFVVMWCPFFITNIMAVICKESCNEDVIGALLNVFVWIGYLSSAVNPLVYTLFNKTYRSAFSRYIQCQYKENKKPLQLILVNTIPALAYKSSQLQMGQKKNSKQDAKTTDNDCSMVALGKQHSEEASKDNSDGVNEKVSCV
Description for ICR mice: Male ICR mice (23±3 g) were purchased from BioLASCO (Taipei, Taiwan) at 4-5 weeks of age and allowed 5-7 days to acclimate to the animal research facility at Pharmacology Discovery Services (Taipei, Taiwan). Mice were housed in groups of 10 in a large cage (47×25×15 cm) on a 12-hour light cycle (lights on: 0700) and provided ad libitum food and water except during acute restraint stress and tail-suspension testing. Temperature was maintained at 20-24° C., and all rooms (colony and testing rooms) had similar lighting intensity. […] All experiments were conducted between 0900 to 1700 local time, during the light phase. […]
Tail Suspension Test (TST) Procedure: Mice were individually suspended on the edge of a shelf, 58 cm above a tabletop, using adhesive tape placed approximately 1 cm from the tip of the tail, for a total duration of 7 minutes. Using a stopwatch, the experimenters blinded to treatment groups recorded the duration of immobility (defined as hanging passively and motionless) during the 5 minutes spanning from 2-7 minutes. The data from 0-2 minutes was not recorded. […]

For the molecule `COc1cc2c(CCN(C)C)n[nH]c2cc1F` [Example A5, 2-(6-fluoro-5-methoxy-1H-indazol-3-yl)-N,N-dimethylethan-1-amine], the Emax at 5-HT2A was determined as 87%; on 5-HT2C it was 105%. In addition, the pEC50 at 5-HT2A was 7.36; at 5-HT2C (agonist activity) it was 6.55. Also, the “5-HT2B % Activation @ 10 µM” value at 5-HT2B [1] stood at 44%. Further, in the test with ICR mice, the “immobility time in tail suspension test” value was “decrease the immobility time”.

For `COc1cc2c(CCN3CCC4CC43)n[nH]c2cc1F` (centres unmarked) [Example A60, 3-(2-(2-azabicyclo[3.1.0]hexan-2-yl)ethyl)-6-fluoro-5-methoxy-1H-indazole], the Emax at 5-HT2A amounted to 92%; at 5-HT2C, 90%. The pEC50 on 5-HT2A is 8.09; on 5-HT2C (agonist activity), 6.59. Also, the “5-HT2B % Activation @ 10 µM” value at 5-HT2B [1] is listed as 89%.

Regarding `COc1ccc2[nH]nc(CCNCc3ccccc3)c2c1` [Example A62, N-benzyl-2-(5-methoxy-1H-indazol-3-yl)ethan-1-amine], the Emax at 5-HT2A came to 81%; on 5-HT2C it was 85%. Moreover, the pEC50 is 7.54 at 5-HT2A and 6.75 on 5-HT2C (agonist activity). Further, the “5-HT2B % Activation @ 10 µM” value at 5-HT2B [1] amounted to 0%.

Turning to `COc1ccc2[nH]nc(CCNCc3ccccc3OC)c2c1` [Example A63, 2-(5-methoxy-1H-indazol-3-yl)-N-(2-methoxybenzyl)ethan-1-amine], the Emax at 5-HT2A was found to be 92%; at 5-HT2C, 88%. Besides, the pEC50 on 5-HT2A is 8.65; at 5-HT2C (agonist activity), 7.49. In addition, the “5-HT2B % Activation @ 10 µM” value at 5-HT2B [1] worked out at 11%.

Turning to `COc1ccc2[nH]nc(CCNCc3ccccc3F)c2c1` [Example A64, N-(2-fluorobenzyl)-2-(5-methoxy-1H-indazol-3-yl)ethan-1-amine], the Emax turned out to be 79% at 5-HT2A and 82% at 5-HT2C. For the same molecule, the figures for the pEC50 at 5-HT2A and on 5-HT2C (agonist activity) were 7.16 and 6.22, respectively. In addition, the “5-HT2B % Activation @ 10 µM” value on 5-HT2B [1] is on record as 0%.

As to `COc1ccc2[nH]nc(CCNCc3cccc(F)c3)c2c1` [Example A65, N-(3-fluorobenzyl)-2-(5-methoxy-1H-indazol-3-yl)ethan-1-amine], the values for the Emax at 5-HT2A and at 5-HT2C were 70% and 81%, respectively. The pEC50 is 7.04 on 5-HT2A and 6.05 on 5-HT2C (agonist activity). The “5-HT2B % Activation @ 10 µM” value at 5-HT2B [1] turned out to be 1%.

As to `COc1cccc(CNCCc2n[nH]c3ccc(OC)cc23)c1` [Example A66, 2-(5-methoxy-1H-indazol-3-yl)-N-(3-methoxybenzyl)ethan-1-amine], the Emax on 5-HT2A is 63%; on 5-HT2C it was 53%. The pEC50 at 5-HT2A is 7.30; at 5-HT2C (agonist activity) it was 5.90. The “5-HT2B % Activation @ 10 µM” value at 5-HT2B [1] is on record as 0%.

Regarding `CN(C)CCc1n[nH]c2c(F)cccc12` [Example A67, 2-(7-fluoro-1H-indazol-3-yl)-N,N-dimethylethan-1-amine], the values for the Emax at 5-HT2A and at 5-HT2C were 63% and 37%, respectively. For the same molecule, the pEC50 at 5-HT2A is 6.37; on 5-HT2C (agonist activity), 5.78. For the same molecule, on 5-HT2B [1], the “5-HT2B % Activation @ 10 µM” value stood at 0%.

As for `CCN(C)CCc1n[nH]c2c(F)cccc12` [Example A68, N-ethyl-2-(7-fluoro-1H-indazol-3-yl)-N-methylethan-1-amine], the Emax on 5-HT2A amounted to 40%; at 5-HT2C it was 32%. The pEC50 on 5-HT2A is 6.33; on 5-HT2C (agonist activity) it was 5.72. Moreover, at 5-HT2B [1], the “5-HT2B % Activation @ 10 µM” value was 0%.

For the molecule `CN(C)CCc1n[nH]c2ccc(F)c(F)c12` [Example A69, 2-(4,5-difluoro-1H-indazol-3-yl)-N,N-dimethylethan-1-amine], the Emax on 5-HT2A stood at 79%; on 5-HT2C, 62%. Besides, the results for the pEC50 at 5-HT2A and at 5-HT2C (agonist activity) were 6.56 and 6.88, respectively. Also, at 5-HT2B [1], the “5-HT2B % Activation @ 10 µM” value turned out to be 5%.

For `CCN(C)CCc1n[nH]c2ccc(F)c(F)c12` [Example A70, 2-(4,5-difluoro-1H-indazol-3-yl)-N-ethyl-N-methylethan-1-amine], the Emax on 5-HT2A turned out to be 78%; at 5-HT2C, 76%. The pEC50 at 5-HT2A was 6.42; at 5-HT2C (agonist activity) it was 6.65. The “5-HT2B % Activation @ 10 µM” value at 5-HT2B [1] was found to be 0%.

On to `Fc1ccc2[nH]nc(CCN3CCCC3)c2c1F` [Example A73, 4,5-difluoro-3-(2-(pyrrolidin-1-yl)ethyl)-1H-indazole], for which the figures for the Emax on 5-HT2A and at 5-HT2C were 87% and 70%, respectively. Further, the pEC50 at 5-HT2A is 6.11; at 5-HT2C (agonist activity) it was 5.75. Also, at 5-HT2B [1], the “5-HT2B % Activation @ 10 µM” value is recorded as 18%.

On to `COc1ccccc1CNCCc1n[nH]c2ccc(F)c(F)c12` [Example A74, 2-(4,5-difluoro-1H-indazol-3-yl)-N-(2-methoxybenzyl)ethan-1-amine], for which the results for the Emax at 5-HT2A and at 5-HT2C were 89% and 95%, respectively. Besides, the pEC50 at 5-HT2A was 7.23; at 5-HT2C (agonist activity), 6.88. Moreover, the “5-HT2B % Activation @ 10 µM” value on 5-HT2B [1] was found to be 0%.

For the molecule `CN(C)CCc1n[nH]c2cccc(O)c12` [Example P-6], on 5-HT2A, the Emax was determined as 66.4% and the pEC50 was 7.37. Also, the “5-HT2C Emax” value at 5-HT2C (agonist activity) is given as −0.79%. Besides, the “5-HT2B Emax” value on 5-HT2B [2] (agonist activity) is listed as 0.34%.

With `CN(C)CCc1n[nH]c2ccccc12` [Example P-7], the Emax at 5-HT2A was -0.3%; at 5-HT2C, 40.2%; on 5-HT2B [2], 0.17%.

`COc1ccc2[nH]nc(CCN(C)C)c2c1` [Example P-8, 2-(5-methoxy-1H-indazol-3-yl)-N,N-dimethylethan-1-amine]: the Emax was 70% on 5-HT2A, 72.4% on 5-HT2C and 17.9% at 5-HT2B [2]. Also, the “immobility time in tail suspension test” value in the test on ICR mice is “decrease the immobility time”.

For `CCN(CC)CCc1n[nH]c2cccc(OC)c12` [Example P-42, 2-(4-methoxy-1H-indazol-3-yl)-N,N-diethylethan-1-amine], the figures for the Emax on 5-HT2A, at 5-HT2C and at 5-HT2B [2] were 68.8%, 70.5% and 0.24%, respectively.

For `CCN(CC)CCc1n[nH]c2cccc(O)c12` [Example P-43, 3-(2-(diethylamino)ethyl)-1H-indazol-4-ol], the values for the Emax on 5-HT2A, on 5-HT2C and at 5-HT2B [2] were 38.9%, 28.8% and 8.01%, respectively.

For `CCCN(CCC)CCc1n[nH]c2cccc(OC)c12` [Example P-44, 2-(4-methoxy-1H-indazol-3-yl)-N,N-dipropylethan-1-amine], the Emax was determined as 97.6% at 5-HT2A, 77.2% at 5-HT2C and 39.4% on 5-HT2B [2].

For `CCCN(CCC)CCc1n[nH]c2cccc(O)c12` [Example P-45, 3-(2-(dipropylamino)ethyl)-1H-indazol-4-ol], the results for the Emax on 5-HT2A, on 5-HT2C and at 5-HT2B [2] were 100%, 40.2% and 8.93%, respectively.

As to `CCN(CC)CCc1n[nH]c2ccc(OC)cc12` [Example P-48, N,N-diethyl-2-(5-methoxy-1H-indazol-3-yl)ethan-1-amine], the Emax stood at 58.6% on 5-HT2A, 4.22% at 5-HT2C and 16.1% on 5-HT2B [2].

In the case of `CCCN(CCC)CCc1n[nH]c2ccc(OC)cc12` [Example P-49, N,N-dipropyl-2-(5-methoxy-1H-indazol-3-yl)ethan-1-amine], the Emax on 5-HT2A was 67.6%; at 5-HT2C, -0.46%; at 5-HT2B [2] it was 30.7%.

As for `CCN(C)CCc1n[nH]c2ccc(OC)cc12` [Example P-51, N-ethyl-2-(5-methoxy-1H-indazol-3-yl)-N-methylethan-1-amine], the figures for the Emax on 5-HT2A, on 5-HT2C and on 5-HT2B [2] were 79.1%, 24.6% and 30.9%, respectively.

For the molecule `COc1ccc2[nH]nc(CCN(C)C(C)C)c2c1` [Example P-52, N-(2-(5-methoxy-1H-indazol-3-yl)ethyl)-N-methylpropan-2-amine], the figures for the Emax on 5-HT2A, at 5-HT2C and on 5-HT2B [2] were 77.3%, 0.09% and 0.22%, respectively.

On to `COc1cccc2[nH]nc(CCN(C)C)c12` [Example P-55, 2-(4-methoxy-1H-indazol-3-yl)-N,N-dimethylethan-1-amine], for which the Emax on 5-HT2A amounted to 58.7%; at 5-HT2C it was 83.6%; on 5-HT2B [2] it was 1.35%.
